The source made the active and inactive calls. The rule behind the calls is not given here.
Key:
[1] = Displacement of [3H]NCS-382 from GABAB receptor gamma-hydroxybutyric acid binding site in rat cerebral cortex synaptic membranes after 1 hr by liquid scintillation counting; format: cell membranes, Membrane
Rattus norvegicus = species: Rattus norvegicus; experiment: Binding affinity to GABAB receptor gamma-hydroxybutyric acid binding site in UV irradiated rat cerebral cortex synaptic membranes assessed as covalent binding at 100 nM after 1 hr by gamma-hydroxybutyric acid displacement assay; format: tissue-based; conditions: tested as the 125I-labelled form

SMILES	Ki [1]	Activity (Rattus norvegicus)
O=C(O)CCC(O)c1ccc(OCc2cccc(I)c2)cc1 (centres undefined)	75 nM	–
[N-]=[N+]=Nc1ccc(I)cc1COc1ccc(C(O)CCC(=O)O)cc1 (centres undefined)	120 nM	Active
[N-]=[N+]=Nc1ccc(COc2ccc(C(O)CCC(=O)O)cc2)cc1I (centres undefined)	186 nM	–

Reference: ChEMBL document CHEMBL1240511, “Design, synthesis, and in vitro pharmacology of new radiolabeled gamma-hydroxybutyric acid analogues including photolabile analogues with irreversible binding to the high-affinity gamma-hydroxybutyric acid binding sites” (J Med Chem, 2010)
